In PubChem BioAssay AID2060898 (Molecular Pharmacology Branch, DTP, NCI, 2025):

System: 616215-338-R-J1-PDC complex spheroid viability
Assay: Anticancer human tumor 616215-338-R-J1-PDC patient-derived colon adenocarcinoma cell line growth inhibition [RAS]
Conditions: for IC50: curve of first compound; for viability, T/C: stronger effect = lower value; active = viability on the fitted dose curve at most 10% of control; inactive = the rest
Method in brief: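 Tumour cells grown as complex spheroids with HUVEC endothelial cells and mesenchymal stem cells, treated with RAS pathway inhibitor combinations. Each agent spans half-log steps from near clinical Cmax, or 10 microM where Cmax is unknown.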

[1] = second compound 0.000949 µM, first compound 0.00316 µM
[2] = second compound 0.000949 µM, first compound 0.01 µM
[3] = second compound 0.000949 µM, first compound 0.0316 µM
[4] = second compound 0.000949 µM, first compound 0.1 µM
[5] = second compound 0.000949 µM, first compound 0.316 µM
[6] = second compound 0.000949 µM, first compound 1 µM
[7] = second compound 0.003 µM, first compound 0.00316 µM
[8] = second compound 0.003 µM, first compound 0.01 µM
[9] = second compound 0.003 µM, first compound 0.0316 µM
[10] = second compound 0.003 µM, first compound 0.1 µM
[11] = second compound 0.003 µM, first compound 0.316 µM
[12] = second compound 0.003 µM, first compound 1 µM
[13] = second compound 0.00949 µM, first compound 0.00316 µM
[14] = second compound 0.00949 µM, first compound 0.01 µM
[15] = second compound 0.00949 µM, first compound 0.0316 µM
[16] = second compound 0.00949 µM, first compound 0.1 µM
[17] = second compound 0.00949 µM, first compound 0.316 µM
[18] = second compound 0.00949 µM, first compound 1 µM
[19] = second compound 0.03 µM, first compound 0.00316 µM
[20] = second compound 0.03 µM, first compound 0.01 µM
[21] = second compound 0.03 µM, first compound 0.0316 µM
[22] = second compound 0.03 µM, first compound 0.1 µM
[23] = second compound 0.03 µM, first compound 0.316 µM
[24] = second compound 0.03 µM, first compound 1 µM
[25] = second compound 0.0949 µM, first compound 0.00316 µM
[26] = second compound 0.0949 µM, first compound 0.01 µM
[27] = second compound 0.0949 µM, first compound 0.0316 µM
[28] = second compound 0.0949 µM, first compound 0.1 µM
[29] = second compound 0.0949 µM, first compound 0.316 µM
[30] = second compound 0.0949 µM, first compound 1 µM
[31] = second compound 0.3 µM, first compound 0.00316 µM
[32] = second compound 0.3 µM, first compound 0.01 µM
[33] = second compound 0.3 µM, first compound 0.0316 µM
[34] = second compound 0.3 µM, first compound 0.1 µM
[35] = second compound 0.3 µM, first compound 0.316 µM
[36] = second compound 0.3 µM, first compound 1 µM
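Note: spheroids exposed to agents for seven days before viability readout.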
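Throughout, for viability, T/C: 100% = DMSO vehicle control viability.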

CC(C)NCC(C(=O)N1CCN(c2ncnc3c2C(C)CC3O)CC1)c1ccc(Cl)cc1 (stereo unspecified) + C=CC(=O)N1CCN(c2nc(OCC3CCCN3C)nc3c(F)c(-c4nc(N)cc(C)c4C(F)(F)F)c(Cl)cc23)C(C)C1
inactive: viability, T/C (second compound 0.00316 µM, first compound 0.0316 µM) 97.1% | viability, T/C (second compound 0.00316 µM, first compound 0.1 µM) 110% | viability, T/C (second compound 0.00316 µM, first compound 0.316 µM) 106% | viability, T/C (second compound 0.00316 µM, first compound 1 µM) 112% | viability, T/C (second compound 0.00316 µM, first compound 3.16 µM) 95% | viability, T/C (second compound 0.00316 µM, first compound 10 µM) 45.9% | viability, T/C (second compound 0.01 µM, first compound 0.0316 µM) 105% | viability, T/C (second compound 0.01 µM, first compound 0.1 µM) 98.1% | viability, T/C (second compound 0.01 µM, first compound 0.316 µM) 102% | viability, T/C (second compound 0.01 µM, first compound 1 µM) 116% | viability, T/C (second compound 0.01 µM, first compound 3.16 µM) 95.1% | viability, T/C (second compound 0.01 µM, first compound 10 µM) 45.5% | viability, T/C (second compound 0.0316 µM, first compound 0.0316 µM) 110% | viability, T/C (second compound 0.0316 µM, first compound 0.1 µM) 114% | viability, T/C (second compound 0.0316 µM, first compound 0.316 µM) 105% | viability, T/C (second compound 0.0316 µM, first compound 1 µM) 115% | viability, T/C (second compound 0.0316 µM, first compound 3.16 µM) 99.9% | viability, T/C (second compound 0.0316 µM, first compound 10 µM) 54% | viability, T/C (second compound 0.1 µM, first compound 0.0316 µM) 111% | viability, T/C (second compound 0.1 µM, first compound 0.1 µM) 106% | viability, T/C (second compound 0.1 µM, first compound 0.316 µM) 108% | viability, T/C (second compound 0.1 µM, first compound 1 µM) 107% | viability, T/C (second compound 0.1 µM, first compound 3.16 µM) 98.2% | viability, T/C (second compound 0.1 µM, first compound 10 µM) 50% | viability, T/C (second compound 0.316 µM, first compound 0.0316 µM) 103% | viability, T/C (second compound 0.316 µM, first compound 0.1 µM) 106% | viability, T/C (second compound 0.316 µM, first compound 0.316 µM) 104% | viability, T/C (second compound 0.316 µM, first compound 1 µM) 108% | viability, T/C (second compound 0.316 µM, first compound 3.16 µM) 93.4% | viability, T/C (second compound 0.316 µM, first compound 10 µM) 48.5% | viability, T/C (second compound 1 µM, first compound 0.0316 µM) 104% | viability, T/C (second compound 1 µM, first compound 0.1 µM) 94.9% | viability, T/C (second compound 1 µM, first compound 0.316 µM) 103% | viability, T/C (second compound 1 µM, first compound 1 µM) 117% | viability, T/C (second compound 1 µM, first compound 3.16 µM) 104% | viability, T/C (second compound 1 µM, first compound 10 µM) 47.7%
9740 nM: IC50 (second compound 0.316 µM)
> 10000 nM: IC50 (second compound 0.0316 µM)
9020 nM: IC50 (second compound 0.01 µM)
9550 nM: IC50 (second compound 1 µM)
10000 nM: IC50 (second compound 0.1 µM)
9080 nM: IC50 (second compound 0.00316 µM)

C=CC(=O)N1CCN(c2nc(OCC3CCCN3C)nc3c(F)c(-c4nc(N)cc(C)c4C(F)(F)F)c(Cl)cc23)C(C)C1 (stereo unspecified) + CCn1c(-c2cccnc2C(C)OC)c2c3cc(ccc31)N1CCOC(CC(NC(=O)C(C(C)C)N(C)C(=O)C3(F)CCN(C(=O)C#CC(C)(C)N(C)C)CC3)C(=O)N3CCCC(N3)C(=O)OCC(C)(C)C2)C1
> 1000 nM: IC50 (second compound 0.000949 µM) | IC50 (second compound 0.003 µM) | IC50 (second compound 0.00949 µM) | IC50 (second compound 0.03 µM) | IC50 (second compound 0.0949 µM) | IC50 (second compound 0.3 µM)
inactive: viability, T/C [1] 106% | viability, T/C [2] 100% | viability, T/C [3] 106% | viability, T/C [4] 108% | viability, T/C [5] 115% | viability, T/C [6] 103% | viability, T/C [7] 103% | viability, T/C [8] 114% | viability, T/C [9] 100% | viability, T/C [10] 111% | viability, T/C [11] 116% | viability, T/C [12] 101% | viability, T/C [13] 106% | viability, T/C [14] 101% | viability, T/C [15] 106% | viability, T/C [16] 104% | viability, T/C [17] 106% | viability, T/C [18] 100% | viability, T/C [19] 118% | viability, T/C [20] 110% | viability, T/C [21] 105% | viability, T/C [22] 115% | viability, T/C [23] 101% | viability, T/C [24] 98.6% | viability, T/C [25] 135% | viability, T/C [26] 113% | viability, T/C [27] 109% | viability, T/C [28] 127% | viability, T/C [29] 126% | viability, T/C [30] 116% | viability, T/C [31] 117% | viability, T/C [32] 108% | viability, T/C [33] 107% | viability, T/C [34] 112% | viability, T/C [35] 113% | viability, T/C [36] 107%

C=CC(=O)Nc1cc(Nc2nccc(-c3cn(C)c4ccccc34)n2)c(OC)cc1N(C)CCN(C)C + CCn1c(-c2cc(N3CCN(C)CC3)cnc2C(C)OC)c2c3cc(ccc31)-c1csc(n1)CC(NC(=O)C1CC1C)C(=O)N1CCCC(N1)C(=O)OCC(C)(C)C2
inactive: viability, T/C [1] 106% | viability, T/C [2] 102% | viability, T/C [3] 119% | viability, T/C [4] 101% | viability, T/C [5] 84.1% | viability, T/C [6] 56.3% | viability, T/C [7] 113% | viability, T/C [8] 109% | viability, T/C [9] 104% | viability, T/C [10] 81.9% | viability, T/C [11] 54.7% | viability, T/C [12] 43.7% | viability, T/C [13] 77.3% | viability, T/C [14] 80.4% | viability, T/C [15] 72% | viability, T/C [16] 63% | viability, T/C [17] 43.6% | viability, T/C [18] 28.7% | viability, T/C [19] 44.4% | viability, T/C [20] 48.8% | viability, T/C [21] 48.4% | viability, T/C [22] 54.9% | viability, T/C [23] 34.5% | viability, T/C [24] 32.4% | viability, T/C [25] 30.8% | viability, T/C [26] 34.1% | viability, T/C [27] 36.6% | viability, T/C [28] 36.9% | viability, T/C [29] 34.7% | viability, T/C [30] 33% | viability, T/C [31] 39.2% | viability, T/C [32] 33.1% | viability, T/C [33] 39.1% | viability, T/C [34] 37.3% | viability, T/C [35] 33.5% | viability, T/C [36] 32.5%
522 nM: IC50 (second compound 0.003 µM)
216 nM: IC50 (second compound 0.00949 µM)
< 3.16 nM: IC50 (second compound 0.0949 µM) | IC50 (second compound 0.3 µM)
> 1000 nM: IC50 (second compound 0.000949 µM)
3.16 nM: IC50 (second compound 0.03 µM)
